Legend:
[1] = biological target: Serine/threonine-protein kinase pim-2 (Homo sapiens, UniProt Q9P1W9); assay: PIM-2 Biochemical Assay: The biochemical assay to measure PIM-2 activity relies on the ADP Hunter assay kit (DiscoveRx Corp., Cat. #90-0077), that determines the amount of ADP as direct product of the kinase enzyme activity.
[2] = biological target: Serine/threonine-protein kinase pim-1 (Homo sapiens, UniProt P11309); assay: PIM-1 Biochemical Assay: The biochemical assay to measure PIM-1 activity relies on the ADP Hunter assay kit (DiscoveRx Corp., Cat. #90-0077), that determines the amount of ADP as direct product of the kinase enzyme activity.
Serine/threonine-protein kinase pim-1, sequence (P11309 whole entry): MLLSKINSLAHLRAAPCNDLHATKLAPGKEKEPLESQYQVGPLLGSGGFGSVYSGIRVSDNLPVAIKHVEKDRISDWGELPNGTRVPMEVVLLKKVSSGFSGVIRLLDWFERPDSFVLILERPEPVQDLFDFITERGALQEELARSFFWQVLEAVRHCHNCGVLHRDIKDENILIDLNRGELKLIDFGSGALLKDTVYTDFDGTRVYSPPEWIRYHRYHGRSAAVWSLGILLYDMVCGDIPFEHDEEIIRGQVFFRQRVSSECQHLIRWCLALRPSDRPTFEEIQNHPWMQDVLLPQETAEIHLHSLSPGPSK

[3] = biological target: Serine/threonine-protein kinase pim-3 (Homo sapiens, UniProt Q86V86); assay: PIM-3 Biochemical Assay: The biochemical assay to measure PIM-3 activity relies on the ADP Hunter assay kit (DiscoveRx Corp., Cat. #90-0077), that determines the amount of ADP as direct product of the kinase enzyme activity.

Serine/threonine-protein kinase pim-2, sequence (Q9P1W9 whole entry): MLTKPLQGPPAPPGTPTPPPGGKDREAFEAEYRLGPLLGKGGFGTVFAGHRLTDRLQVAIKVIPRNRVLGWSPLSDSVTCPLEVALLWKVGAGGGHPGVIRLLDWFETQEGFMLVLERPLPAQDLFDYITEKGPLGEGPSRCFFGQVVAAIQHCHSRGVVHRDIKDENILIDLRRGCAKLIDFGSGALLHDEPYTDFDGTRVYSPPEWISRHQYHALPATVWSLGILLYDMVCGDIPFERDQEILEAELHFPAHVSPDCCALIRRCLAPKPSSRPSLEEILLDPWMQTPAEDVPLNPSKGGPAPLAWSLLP

Compound	IC50 [1]	IC50 [2]	IC50 [3]
CN1CCOc2c1c(NCC13CCN(CC1)C3)nn1c(-c3cccc(OC(F)(F)F)c3)nnc21	> 1 µM	< 0.1 µM	–
CN1CCOc2c1c(NCC1CC3(CCNCC3)C1)nn1c(-c3cccc(OC(F)(F)F)c3)nnc21	–	< 0.1 µM	< 0.1 µM
CN1CCOc2c(N3CCC(N(C)C)CC3)nn3c(-c4cccc(OC(F)(F)F)c4)nnc3c21	> 1 µM	> 1 µM	–
CN1CCOc2c1c(NCCc1cccnc1)nn1c(-c3cccc(OC(F)(F)F)c3)nnc21	–	< 0.1 µM	–

Continued, values first:

IC50 [1]	IC50 [2]	IC50 [3]	Compound
> 1 µM	–	–	CN1CCOc2c(NCCN3CCNCC3)nn3c(-c4cccc(OC(F)(F)F)c4)nnc3c21
–	< 0.1 µM	–	CN1CCOc2c1c(NCCN1CCOCC1)nn1c(-c3cccc(OC(F)(F)F)c3)nnc21
> 1 µM	> 1 µM	–	CN1CCN(CCNc2nn3c(-c4cccc(OC(F)(F)F)c4)nnc3c3c2OCCN3C)CC1
> 1 µM	> 1 µM	–	CN1CCOc2c(NCCN3CCOCC3)nn3c(-c4cccc(OC(F)(F)F)c4)nnc3c21

Source: ChEMBL document CHEMBL5725341, “Tricyclic compounds for use as kinase inhibitors” (2017)
